Data: article PMC5441580, “GPR40 partial agonist MK-2305 lower fasting glucose in the Goto Kakizaki rat via suppression of endogenous glucose production” (PLoS ONE, 2017)
“And” between values parts separate entries of the source, which are not always exact repeats. Equal entries are not always repeated.

What was measured:
GK rats = assay: 13C-labeled OGTT, 13C metabolites in liver and skeletal muscle; type: in vivo, rat; conditions: for 13C Labeled Metabolite, Ala C3 / 13C Labeled Metabolite, G6P C1 / 13C Labeled Metabolite, Glyc C1 / 13C Labeled Metabolite, Lac C3: [1-13C] glucose, acute treatment, individual animals
Procedure: GK rat OGTT procedures were followed as above. Animals were treated PO at 5 ml/kg with MK-2305 at 10 mg/kg or vehicle at time = -60 min. At time = 0, animals were challenged PO at 10 ml/kg dose volume with [1-^13C] glucose prepared in distilled water at 1 g/kg (Sigma-Aldrich). Blood glucose was measured pre-treatment and at t = 0, 20, 40, 60, 120 minutes post challenge. Following the blood glucose measurement at time = 120 min, animals were anesthetized with Isoflurane (Isothesia, Henry Schein, Dublin, OH) and samples of liver and skeletal muscle were collected. Tissue samples were processed using a methanol/water based extraction procedure as follows. Frozen tissue was weighed and added to tubes containing 80% methanol at a ratio of 100 mg tissue per mL 80% methanol. The samples were homogenized at 4°C using a Polytron homogenizer equipped with a 12 mm stainless steel head. Samples were then centrifuged at 25,000 rcf for 10 min at 4°C, the supernatant collected, and the pellet extracted again using an equivalent volume of 80% methanol. The supernatants from both extractions were pooled and the methanol evaporated under nitrogen. The samples were then reconstituted in 180 μl 0.1M sodium phosphate in D2O (pH 7.4) for NMR analysis. ^13C NMR of tissue extracts was performed on a 600 MHz Bruker NMR spectrometer (David H. Murdock Research Institute) using the following parameters: 45° pulse, D1 = 0.2 sec, NS = 3200 averages, ^1H broadband decoupling (WALTZ-16), acquisition time ~45 min. […] These NMR signals were integrated and converted to absolute units (μmoles) using ^13C NMR spectra from standard solutions of each metabolite of known concentration acquired under identical conditions. Glycogen is a primary site of glucose disposal in both liver and muscle, however glycogen was not preserved in our tissue extraction protocol. To quantify tissue ^13C-glycogen, a separate piece of tissue from each sample was analyzed. Briefly, tissue samples were saponified in hot KOH, and this was followed by glycogen precipitation with NaSO4 and ethanol, and then degradation with amyloglucosidase. The resulting glycogen-derived glucose solution was analyzed for total glucose using a glucose oxidase / horseradish peroxidase assay kit and fluorescence-based product detection according to the manufacturers’ instructions (BioVision Glycogen Assay Kit, Milpitas, CA).

human GPR43 (FFAR2) = biological target: T1, human GPR43 (FFAR2) (Homo sapiens, UniProt O15552); assay: cAMP (LANCE) functional assay, CHO cells expressing human GPR43; type: cell-based
T1 construct: expressed in transfected cells
T1 sequence (O15552 1-330): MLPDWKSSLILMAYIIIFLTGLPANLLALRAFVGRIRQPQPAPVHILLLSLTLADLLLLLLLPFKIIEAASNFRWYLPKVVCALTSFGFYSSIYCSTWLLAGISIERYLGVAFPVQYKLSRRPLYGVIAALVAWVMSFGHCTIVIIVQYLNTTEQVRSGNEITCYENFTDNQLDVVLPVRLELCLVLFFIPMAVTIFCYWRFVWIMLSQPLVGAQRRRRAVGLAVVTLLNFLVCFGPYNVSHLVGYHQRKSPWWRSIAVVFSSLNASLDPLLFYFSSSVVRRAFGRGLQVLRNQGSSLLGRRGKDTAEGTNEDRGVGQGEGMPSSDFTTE
Procedure: CHO cells stably expressing human GPR41 or human GPR43 were harvested with non-enzymatic cell dissociation buffer and re-suspended in LANCE stimulation buffer (prepared as described by PE) at 0.25 million cells per ml (3.3 million cells per ml for GPR43) and 6 μl was then plated into each well of a 384-well Culturplate. Compounds were serially diluted in DMSO and then diluted further into stimulation buffer containing 2 μM forskolin (Sigma) at 2-times final concentration in the assay. 6 μl of the diluted compounds were then added to the assay plate and the plate incubated for 60 mins at room temperature. After the incubation, 12 μl of detection reagent (prepared as described by PE) was added to each well and the plates incubated one additional hour at room temperature. After the final incubation, the plates were read in a Perkin Elmer Envision reader with a method designed for Time-resolved fluorescence (TRF) assays (340 nm excitation, dual emission 615 and 655 nm). For each assay, a cAMP standard curve plate was also included. All fluorescent readings (using the 655/615 nm ratio) were converted to cAMP concentration using the cAMP standard curve and the percent activity at each concentration of test compound was determined using 0% activation (basal activity) determined in those wells containing DMSO alone, while 100% activity was determined in wells containing a concentration of agonist know to maximally activate the receptor.

[1] = 10 mg/kg PO, [1-13C] glucose OGTT, GK rats

## O=C1NC(=O)C(C2CCOc3cc(Oc4ccc(C(F)(F)F)cc4Cl)ccc32)S1 (stereo not drawn) [MK-2305]
GK rats; [1]
  effect on disposal of 13C-glucose into 13C-G6P, 13C-glycogen, 13C-lactate and 13C-alanine in liver: significant decreases
  effect on disposal of 13C-glucose into metabolites in muscle: no significant effects
GK rats
  13C Labeled Metabolite, Ala C3: 0.07795 umoles/g liver and 0.1076 umoles/g liver and 0.03915 umoles/g liver and 0.01144 umoles/g liver and 0.01402 umoles/g liver and 0.02433 umoles/g liver and 0.05001 umoles/g liver and 0.007673 umoles/g liver
  13C Labeled Metabolite, G6P C1: 0.02684 umoles/g liver and 0.01164 umoles/g liver and 0.007287 umoles/g liver and 0.01533 umoles/g liver and 0.00988 umoles/g liver and 0.01421 umoles/g liver and 0.01349 umoles/g liver and 0.0107 umoles/g liver
  13C Labeled Metabolite, Glyc C1: 1.292 umoles/g liver and 0.3555 umoles/g liver and 0.1582 umoles/g liver and 0.4672 umoles/g liver and 0.1107 umoles/g liver and 0.1399 umoles/g liver and 0.3766 umoles/g liver and 0.2884 umoles/g liver
  13C Labeled Metabolite, Lac C3: 0.03897 umoles/g liver and 0.06288 umoles/g liver and 0.02257 umoles/g liver and 0.01974 umoles/g liver and 0.01299 umoles/g liver and 0.02143 umoles/g liver and 0.0406 umoles/g liver and 0.007673 umoles/g liver
GK rats; skeletal muscle
  13C Labeled Metabolite, Ala C3: 0.1279 umoles/g muscle and 0.07989 umoles/g muscle and 0.1157 umoles/g muscle and 0.07123 umoles/g muscle
  13C Labeled Metabolite, G6P C1: 0.05019 umoles/g muscle and 0.01903 umoles/g muscle and 0.04767 umoles/g muscle and 0.01045 umoles/g muscle and 0.004493 umoles/g muscle and 0.01768 umoles/g muscle and 0.003514 umoles/g muscle
  13C Labeled Metabolite, Glyc C1: 0.2857 umoles/g muscle and 0.133 umoles/g muscle and 1.635 umoles/g muscle and 0.328 umoles/g muscle and 0.06707 umoles/g muscle and 0.1828 umoles/g muscle and 0.4005 umoles/g muscle
  13C Labeled Metabolite, Lac C3: 0.2756 umoles/g muscle and 0.03448 umoles/g muscle and 0.06757 umoles/g muscle and 0.07739 umoles/g muscle and 0.08426 umoles/g muscle
Human GPR43 (FFAR2); @ 25 μM
  % Activation: 61 @ 25 μM % and 61%
Human GPR43 (FFAR2); Dose 1.267 nM
  % Effect: -23%
Human GPR43 (FFAR2); Dose 3.801 nM
  % Effect: -37%
Human GPR43 (FFAR2); Dose 34.208 nM
  % Effect: -32%
Human GPR43 (FFAR2); Dose 102.624 nM
  % Effect: 25%
Human GPR43 (FFAR2); Dose 307.872 nM
  % Effect: -78%
Human GPR43 (FFAR2); Dose 923.617 nM
  % Effect: -34%
Human GPR43 (FFAR2); Dose 2770.85 nM
  % Effect: -39%
Human GPR43 (FFAR2); Dose 8312.55 nM
  % Effect: -23%
Human GPR43 (FFAR2); Dose 24938 nM
  % Effect: 61%
Human GPR43 (FFAR2); cAMP, CHO cells expressing human GPR43
  EC50: > 25 µM
